The source of these data is US20220380331A1, “TREATMENT OF CONDITIONS OF THE NERVOUS SYSTEM” (priority 2019, published 2022).

The test system of series [1] is HL sensory function after spinal cord injury. Kind of series: Von Frey assay (50% withdrawal threshold) in spinal cord injured rats. The series is classed as in vivo, rat.
Procedure: Changes to HL sensory function was assessed using von Frey methodologies to look for hyperalgesia and neuropathic pain. Four animals at a time were acclimatised to Perspex cages with a wire mesh bottom (FIG. 3) for approximately fifteen to twenty minutes before the test began and until general movement and grooming activities stopped. Von Frey filaments (Touch Test™ Sensory Evaluator Kit of 20; #39337500; Leica Biosystems, Milton Keynes, England FIG. 3C) were depressed through the mesh-bottomed cage against the more sensitive plantar arch of the HL footpads where withdrawal of the limb was counted as a positive result. Flinching was also seen as a positive response whereas walking was an ambiguous response requiring retesting after an appropriate delay. The left hindpaw and right hindpaw of all animals were performed in series to provide a sufficient interval between stimuli.
In series [2] the test system is locomotor function of intact rats. Kind of series: BBB open field locomotor testing in intact rats after ten days of oral PNNi. The series is classed as in vivo, rat. Particulars: short-term treatment. Here is the method: HL locomotor ability was assessed at various time points throughout the acute SCI paradigm using the BBB HL locomotor scale. BBB testing was carried out using an open locomotor field (custom-built Perspex O-ring: diameter 80 cm, height 30 cm) where animals were placed for a duration of 4 minutes (FIG. 2). Each BBB test was simultaneously assessed by two individuals. The resulting scores were pooled and averaged for objectivity. BBB testing assesses HL motor function using a ranking scale from 0-21. Animals are ranked into three broad categories based on their BBB score: early phase (score of 0-7) presenting little to no limb movement; intermediate stage (score of 8-13) with bouts of uncoordinated stepping; and the late stage (score of 14-21) presenting with FL and HL coordination and stability (Basso et al., 1995). Following injury, BBBs were then carried out at 1 DPI to confirm injury and then weekly from 7 DPI. If animals also received rehabilitative training, BBBs were carried out beforehand.

For another series, the system named is sensorimotor cortex (M1). Kind of series: Intracortical microstimulation (ICMS) mapping of HL and FL cortical movement representations. The series is classed as in vivo, rat. The method, then: FIG. […]): Perineuronal net inhibitor (PNNi) induces reorganisation of the sensorimotor map (M1) in intact rats. Using intracortical microstimulation (ICMS), mapping of the HL and FL cortical movement representations were used to investigate the functional organisation of the M1 of intact/sham animals after long-term treatment with the prospective plasticity enhancer, […] was performed at stereotaxic coordinates within a right hemisphere craniotomy 5 mm rostral/caudal to bregma (B) (A) 11 weeks post mid-thoracic laminectomy (Sham) or for age-controlled intact rats. Individual ICMS maps were combined to give the representative heat map per group illustrating the percentage of animals for each stereotaxic coordinate where hindlimb (HL; B-D) or forelimb (FL; K-M) movements were able to be elicited. A baseline HL and FL cortical map was generated for Lister Hooded rats (B, K; dotted outlines in B-D, K-M) to compare the functional plasticity of groups with sham surgery (C, L) and with chronic PNNi administration (D, M). Measurements for HL analysis (F-G) are illustrated in E). H) Average area (mm^2) of the HL representation reduced with PNNi treatment. […] Measurements for FL analysis (P-S) are illustrated in O). After PNNi treatment, FL movements were elicited in areas that are not associated with FL or HL movements (see right of the baseline HL map; white dotted outline K-M). […]

The subject of another series is rats, mice and rabbits. Particulars: very high doses; cited from earlier work.
The conditions of series [3]: Nagy et al., 2015; cited from earlier work.
A further series relates to rats. Particulars: cited from earlier work.
For a further series, the system named is mouse. Particulars: in vivo, po; cited from earlier work.
In another series the test system is rat. The conditions noted are these: in vivo, po; cited from earlier work.

In the case of `Cc1cc(=O)oc2cc(O)ccc12` [PNNi, 4-methylumbelliferone], the “L-R average 50% withdrawal threshold, plantar hindpaws” value in series [1] (8 week PNNi with or without training, 9 and 12 WPI) is recorded as “did not show hyperalgesia”. The “tactile sensitivity using von Frey hair test” value in series [1] (treatment groups after T9 contusion injury, n=11) is “did not show any difference”. Further, the “BBB hindlimb scale score” value in series [2] is given as 21. Further, the “percentage of FL movements associated with areas previously eliciting HL movements” value in the series with sensorimotor cortex (M1) (SCI plus long-term PNNi, sham control 4.27±1.56%) is given as 23.9±8.01%. Also, the “total area able to elicit HL movements” value in the series with sensorimotor cortex (M1) (sham animals, long-term treatment) is “reduced the total area able to elicit HL movements”. Besides, in the series with rats, mice and rabbits, the teratogenic effect entry was “does not seem to have a teratogenic effect”. Moreover, in series [3], the “solubility in aqueous solution” value is on record as “near insoluble”. Moreover, the maximum tolerated dose in the series with rats (oral, rats) was 6000 mg/kg. The “dose tolerated in rats” value with rats (rat, in vivo) is “at least 200 mg/kg/day”. Further, the “mortality in the chronic study” value in the series on rats (rats, 200 mg/kg/day and 40 mg/kg/day for three months) was “No mortality was reported”. The lethal dose with mouse is 7500 mg/kg; in the series with rat, 6200 mg/kg.
